In the supplement of paper PMC7645387:

What was measured:
Assay in all cases: growth inhibition relative to DMSO control (fraction); higher = stronger growth inhibition
Settings in all cases: treatment time: 6 days
HDFB = system: HDFB
Protocol: (§1)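 Drug combination matrices: GSK-LSD1 (0, 1, 10, 100 nM) was combined with a second epigenetic drug (0 to 10 uM) on MCC lines PeTa and MKL-1 and on HDFB fibroblasts for 6 days, in quadruplicate. Viability was read by CellTiter-Glo 2.0. The response is the fraction of growth inhibition relative to DMSO, as input to synergyfinder Bliss analysis.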

PeTa = system: PeTa
Protocol: as §1

MKL-1 = system: MKL-1
Protocol: as §1

c1ccc([C@@H]2C[C@H]2NC2CCNCC2)cc1 [GSK-LSD1] + Nc1ccccc1NC(=O)c1ccc(CNC(=O)OCc2cccnc2)cc1 [Entinostat]
growth inhibition
Settings | partner concentration 0 nM | partner concentration 1 nM | partner concentration 10 nM | partner concentration 100 nM | partner concentration 1000 nM | partner concentration 10000 nM
HDFB, GSK-LSD1 concentration 0 nM | – | 0.0329 | 0.154 | 0.451 | 0.823 | 0.933
HDFB, GSK-LSD1 concentration 1 nM | 0.0914 | 0.124 | 0.111 | 0.467 | 0.822 | 0.944
HDFB, GSK-LSD1 concentration 10 nM | 0.24 | 0.233 | 0.246 | 0.421 | 0.81 | 0.947
HDFB, GSK-LSD1 concentration 100 nM | 0.259 | 0.26 | 0.254 | 0.473 | 0.798 | 0.949
MKL-1, GSK-LSD1 concentration 0 nM | – | 0.0232 | 0.092 | 0.981 | 1 | 1
MKL-1, GSK-LSD1 concentration 1 nM | 0.121 | 0.169 | 0.164 | 0.956 | 1 | 1
MKL-1, GSK-LSD1 concentration 10 nM | 0.421 | 0.48 | 0.441 | 0.961 | 1 | 1
MKL-1, GSK-LSD1 concentration 100 nM | 0.761 | 0.745 | 0.649 | 0.958 | 1 | 1
PeTa, GSK-LSD1 concentration 0 nM | – | -0.000953 | 0.132 | 0.963 | 1 | 1
PeTa, GSK-LSD1 concentration 1 nM | 0.0344 | 0.0611 | 0.145 | 0.975 | 1 | 1
PeTa, GSK-LSD1 concentration 10 nM | 0.459 | 0.465 | 0.561 | 0.998 | 1 | 1
PeTa, GSK-LSD1 concentration 100 nM | 0.787 | 0.776 | 0.761 | 0.974 | 1 | 1

c1ccc([C@@H]2C[C@H]2NC2CCNCC2)cc1 [GSK-LSD1] + Cc1sc2c(c1C)C(c1ccc(Cl)cc1)=N[C@@H](CC(=O)OC(C)(C)C)c1nnc(C)n1-2 [(+)-JQ1]
growth inhibition
Settings | partner concentration 0 nM | partner concentration 1 nM | partner concentration 10 nM | partner concentration 100 nM | partner concentration 1000 nM | partner concentration 10000 nM
HDFB, GSK-LSD1 concentration 0 nM | – | -0.0405 | -0.0664 | 0.475 | 0.743 | 0.784
HDFB, GSK-LSD1 concentration 1 nM | 0.0649 | 0.0389 | 0.0119 | 0.469 | 0.75 | 0.796
HDFB, GSK-LSD1 concentration 10 nM | 0.0598 | 0.0402 | 0.0248 | 0.531 | 0.761 | 0.792
HDFB, GSK-LSD1 concentration 100 nM | 0.0941 | 0.0548 | 0.115 | 0.607 | 0.773 | 0.817
MKL-1, GSK-LSD1 concentration 0 nM | – | -0.032 | -0.0639 | 0.818 | 0.994 | 0.997
MKL-1, GSK-LSD1 concentration 1 nM | 0.00341 | -0.0162 | -0.0305 | 0.799 | 0.994 | 0.998
MKL-1, GSK-LSD1 concentration 10 nM | 0.349 | 0.33 | 0.364 | 0.849 | 0.999 | 1
MKL-1, GSK-LSD1 concentration 100 nM | 0.792 | 0.766 | 0.766 | 0.917 | 0.999 | 1
PeTa, GSK-LSD1 concentration 0 nM | – | -0.0721 | -0.114 | 0.804 | 0.95 | 0.976
PeTa, GSK-LSD1 concentration 1 nM | -0.00975 | -0.0422 | -0.106 | 0.67 | 0.945 | 0.968
PeTa, GSK-LSD1 concentration 10 nM | 0.536 | 0.522 | 0.489 | 0.848 | 0.975 | 0.995
PeTa, GSK-LSD1 concentration 100 nM | 0.819 | 0.765 | 0.749 | 0.925 | 0.995 | 0.998

c1ccc([C@@H]2C[C@H]2NC2CCNCC2)cc1 [GSK-LSD1] + CN1CCN(c2ccc(-c3cccc(CN4CCOCC4)c3)cc2NC(=O)c2c[nH]c(=O)cc2C(F)(F)F)CC1 [OICR9429]
growth inhibition
Settings | partner concentration 0 nM | partner concentration 1 nM | partner concentration 10 nM | partner concentration 100 nM | partner concentration 1000 nM | partner concentration 10000 nM
HDFB, GSK-LSD1 concentration 0 nM | – | -0.0114 | 0.00661 | -0.0286 | 0.11 | 0.593
HDFB, GSK-LSD1 concentration 1 nM | 0.0144 | 0.0294 | 0.0019 | 0.0389 | 0.171 | 0.68
HDFB, GSK-LSD1 concentration 10 nM | 0.091 | 0.0858 | 0.0542 | 0.0911 | 0.22 | 0.651
HDFB, GSK-LSD1 concentration 100 nM | 0.149 | 0.113 | 0.145 | 0.139 | 0.282 | 0.676
MKL-1, GSK-LSD1 concentration 0 nM | – | -0.0407 | -0.0602 | -0.0599 | -0.0444 | -0.00949
MKL-1, GSK-LSD1 concentration 1 nM | 0.0584 | 0.0967 | 0.0719 | 0.0573 | 0.0606 | 0.0783
MKL-1, GSK-LSD1 concentration 10 nM | 0.357 | 0.381 | 0.381 | 0.355 | 0.398 | 0.438
MKL-1, GSK-LSD1 concentration 100 nM | 0.717 | 0.695 | 0.709 | 0.735 | 0.775 | 0.797
PeTa, GSK-LSD1 concentration 0 nM | – | -0.0155 | -0.0439 | -0.00944 | 0.0255 | 0.143
PeTa, GSK-LSD1 concentration 1 nM | -0.0127 | -0.0233 | -0.0546 | -0.0748 | 0.0274 | 0.0895
PeTa, GSK-LSD1 concentration 10 nM | 0.451 | 0.456 | 0.365 | 0.381 | 0.437 | 0.509
PeTa, GSK-LSD1 concentration 100 nM | 0.808 | 0.808 | 0.787 | 0.806 | 0.827 | 0.863
